Literature values as cited in patent publication US10376470B2, “Oral tablet formulation consisting of fixed combination of rosuvastatin and ezetimibe for treatment of hyperlipidemia and cardiovascular diseases” (Althera Life Sciences, LLC, priority 2012, dated 2019).

Solubility in water: practically insoluble
Structure (SMILES): O=C1[C@H](CC[C@H](O)c2ccc(F)cc2)[C@@H](c2ccc(O)cc2)N1c1ccc(F)cc1 [Ezetimibe, ezetimibe]
